Data from the Kinase Knowledgebase extract (Sharma et al. 2016).
pIC50: −log10 of the molar value.

Target: MAPK14 (human) (UniProt Q16539)
Assay: TNF-alpha Release Inhibition (LPS-stimulated PBMCs)
Conditions: pbmc

MAPK14 (human), sequence (Q16539 whole entry, looked up): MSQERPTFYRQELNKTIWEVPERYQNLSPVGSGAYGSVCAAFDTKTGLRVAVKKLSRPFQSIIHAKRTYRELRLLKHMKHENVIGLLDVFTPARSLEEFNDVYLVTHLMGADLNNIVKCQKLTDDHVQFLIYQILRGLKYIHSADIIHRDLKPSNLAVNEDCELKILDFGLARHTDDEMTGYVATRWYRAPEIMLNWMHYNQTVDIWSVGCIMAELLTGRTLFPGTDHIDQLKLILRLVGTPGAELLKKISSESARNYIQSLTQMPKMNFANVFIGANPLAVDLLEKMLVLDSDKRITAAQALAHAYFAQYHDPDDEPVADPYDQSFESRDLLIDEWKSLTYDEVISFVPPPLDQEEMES

SMILES | pIC50
Fc1ccc(-c2[nH]c3nc(NCc4ccccc4)ccc3c2-c2ccncc2)cc1 | 6.52
Fc1ccc(-c2[nH]c3ncccc3c2-c2ccncc2)cc1 | 6.40
CCCCOc1cc(O)nc2[nH]c(-c3ccc(F)cc3)c(-c3ccncc3)c12 | 7.82
COc1ccc2c(-c3ccncc3)c(-c3cccc(F)c3)[nH]c2c1 | 6.52
Nc1cc(OCc2ccc(F)cc2)c2c(-c3ccncc3)c(-c3ccc(F)cc3)[nH]c2n1 | 8.70
Nc1ccc2c(-c3ccncc3)c(-c3cccc(Cl)c3)[nH]c2n1 | 8.05
CCCCOc1cc(OC)nc2[nH]c(-c3ccc(F)cc3)c(-c3ccncc3)c12 | 8.22
Nc1ccc2c(-c3ccncc3)c(-c3ccc(F)c(F)c3)[nH]c2n1 | 7.52
CCOc1ccc(-c2[nH]c3nc(N)ccc3c2-c2ccncc2)cc1Cl | 7.22
COc1ccc2c(-c3ccncc3)c(-c3ccc(F)cc3)[nH]c2c1 | 6.40
COc1ccc2c(-c3ccncc3)c(-c3ccc(F)cc3)[nH]c2n1 | 6.70
Oc1ccc2c(-c3ccncc3)c(-c3ccc(F)cc3)[nH]c2n1 | < 5.00
COc1ccc2c(-c3ccncc3)c(-c3ccc(I)cc3)[nH]c2c1 | 5.19
CN(C)c1ccc2c(-c3ccncc3)c(-c3ccc(F)cc3)[nH]c2n1 | 6.40
Fc1ccc(-c2[nH]c3ccccc3c2-c2ccncc2)cc1 | < 5.00
Nc1ccc2c(-c3ccncc3)c(-c3cccc(I)c3)[nH]c2n1 | 7.40
COc1ccc2c(-c3ccncc3)c(-c3cccc(Cl)c3)[nH]c2c1 | 6.90
Nc1ccc2c(-c3ccncc3)c(-c3ccc(F)cc3)[nH]c2c1 | 6.70
COc1ccc2c(-c3ccncc3)c(-c3cccc(I)c3)[nH]c2c1 | 7.00
CC(=O)Nc1ccc2c(-c3ccncc3)c(-c3ccc(F)cc3)[nH]c2n1 | 7.00
